According to the NIST ThermoML archive (doi:10.1016/j.jct.2019.03.035):

Assay: molar heat capacity at constant pressure; xn = mol fraction of the nth substance listed
Conditions: 100 kPa, Liquid, DSC, x1 = 0.53

N#Cc1ccccc1 [benzonitrile] + CCCCCCCCCC
Conditions	molar heat capacity at constant pressure [J/K/mol]
297.05 K	242.4
297.34 K	242.5
297.62 K	242.5
297.91 K	242.4
298.19 K	242.5
298.47 K	242.7
298.76 K	242.6
299.04 K	242.7
299.32 K	242.8
299.61 K	242.9
299.89 K	242.9
300.18 K	243
300.46 K	243.1
300.74 K	243
301.03 K	243
301.31 K	243.1
301.6 K	243.2
301.88 K	243.2
302.16 K	243.3
302.45 K	243.4
302.73 K	243.5
303.01 K	243.5
303.3 K	243.6
303.58 K	243.7
303.87 K	243.7
304.15 K	243.8
304.43 K	243.9
304.72 K	243.9
305 K	244.1
305.29 K	244.1
305.57 K	244
305.85 K	244.2
306.14 K	244.3
306.42 K	244.3
306.7 K	244.4
306.99 K	244.5
307.27 K	244.6
307.56 K	244.6
307.84 K	244.7
308.12 K	244.9
308.41 K	244.8
308.69 K	244.9
308.98 K	245.1
309.26 K	245
309.54 K	245.1
309.83 K	245.2
310.11 K	245.4
310.39 K	245.5
310.68 K	245.5
310.96 K	245.5
311.25 K	245.7
311.53 K	245.7
311.81 K	245.8
312.1 K	245.9
312.38 K	246
312.67 K	246
312.95 K	246.1
313.23 K	246.3
313.52 K	246.2
313.8 K	246.5
314.08 K	246.5
314.37 K	246.6
314.65 K	246.5
314.94 K	246.7
315.22 K	246.8
315.5 K	246.9
315.79 K	246.9
316.07 K	247
316.36 K	247.1
316.64 K	247.3
316.92 K	247.4
317.21 K	247.5
317.49 K	247.5
317.77 K	247.6
318.06 K	247.7
318.34 K	247.7
318.63 K	247.8
318.91 K	248
319.19 K	248.1
319.48 K	248.2
319.76 K	248.2
320.05 K	248.3
320.33 K	248.4
320.61 K	248.5
320.9 K	248.5
321.18 K	248.6
321.46 K	248.7
321.75 K	248.9
322.03 K	249
322.32 K	249
322.6 K	249.1
322.88 K	249.3
323.17 K	249.3
323.45 K	249.5
323.74 K	249.5
324.02 K	249.6
324.3 K	249.7
324.59 K	249.9
324.87 K	250.1
325.16 K	250.2
325.44 K	250.1
325.72 K	250.1
